Experiments:
[1] = system: C. trachomatis-infected HEp2 cells; test: Indirect immunofluorescence of immune sera on infected HEp2 cells; assay type: cell-based, human; settings: sera 1:40 dilution, FITC anti-mouse IgG
Source text: Micrographs of HEp2 cells infected with C. trachomatis are immunostained (by indirect immunofluorescence) with sera (1:40 dilution) from mice immunized with the designated peptides (A-E) or soluble. mAb2 (F). FITC anti-mouse IgG was the detecting antibody. Arrows point to distinct differences in targets of the immune sera. Antibodies in panels A-C recognized EB and RB and possibly some matrix material in the inclusion. Antibodies in D-E also recognized targets in the inclusion matrix and inclusion membrane, similar to immune sera raised against the older vaccine candidate, the entire mAb2 (F). 40× original magnification. Samples are counterstained with Evans blue.
HEp2 cells were infected with C. trachomatis were subjected to cytocentrifugation to deposit them onto microscope slides. After fixation (MeOH) they were stained with sera (1:40 dilution) from mice immunized with the indicated peptides or with soluble mAb2. The binding of the antibodies to the cells was detected using a fluorescent (FITC-labeled) secondary Ab, an anti-mouse IgG. Results appear in FIGS. 9A-F.

C trachomatis = test: DFA staining of vaginal smears after challenge of peptide-immunized mice; assay type: in vivo, mouse; settings: mice immunized three times at 100 μg doses; days 7 and 14 post-challenge
Source text: Mice are challenged with a human biovar of C trachomatis (K or E serovars for urogenital infections; C or B serovars for ocular infection).
Groups of 4-8 mice are “masked” as to pretreatment before challenge with live elementary bodies (EB). At weekly intervals through at least 4 wks, vaginal (or conjunctival) swabs are collected for isolation culture and direct fluorescence antibody staining for EB.
Using the murine models described above, the present inventors immunized mice with one of the four peptides (Pep4, 7, 8 or 10) administered three times at 100 μg doses. Results of direct fluorescent antibody (DFA) staining are summarized for days 7 and 14 post-challenge in FIGS. 10-11.

human sera = test: ELISA of human serum samples on 4 peptides (Example XI); assay type: binding
Experimental: (§1) Blood was collected prior to immunizations and prior to the two boosts. Sera were tested in ELISA. The ELISA method used in the present examples, in which many if not all the parameters and conditions may be varied or modified in ways that are completely conventional in the art, is described below. • 1. 96 well plates (Immulon HBX4) were coated with 50 μl of diluted antigen (peptides at 1 μg/well made in carbonate buffer) and incubated overnight at 4° C. • 2. Unbound antigen was removed by flicking the contents of the plate into a sink without further washing. • 3. Non-specific binding was blocked or prevented by adding 300 μL/well of 4% BSA/PBS-Tween 20 (0.05%). This was allowed to incubate for 2 hour at room temperature. • 4. The plates were washed once with PBS-Tween 20 (0.05%) and 50 μl of primary antibody was added per well at appropriate dilutions. When using serum, the starting dilution was 1:40 and was further diluted by doublings to 1:80, 1:160, and 1:320 (or higher as desired). Plates were incubated for 1 hour at 37° C. • 5. Plates were washed three times with PBS-Tween (0.05%) as above and 100 μl of secondary antibody was added per well at appropriate dilutions. For alkaline phosphatase-conjugated goat anti-mouse IgG-AP, a dilution of 1:500 was used here. Plates were incubated for 1 hour at 37° C. • 6. Plates were again washed three times as above and 200 μl of substrate solution for Alkaline phosphatase (p-nitro phenyl phosphate or pNPP) was added at a concentration of 5 mg/ml. The color reaction was read in an automated microplate reader at a frequency of […] and the absorbance (or optical density) was registered (referred to as A405 or OD405) Several important observations were made in these tests against the 4 peptides: (a) all 4 peptides were immunogenic and induced increasing anti-peptide responses with subsequent boosts in all mice (except in one non-responder) (FIG. 3). […] See also FIG. 16A-16B
Human sera were tested by PCR for expression of several chlamydial genes, by IHC against C. trachomatis-infected cells and by ELISA against several of the peptides of the present invention. Results are shown in Table 7 (below) which include results from PCR-studies for presence of DNA encoding the chlamydial Major Outer Membrane Protein (MOMP) in human peripheral blood mononuclear cells (PBMC) (which are primarily lymphocytes and monocytes) and cervical swabs
Also shown is IHC staining of C. trachomatis-infected human HEp2 cells and binding of antibodies in the patient samples to four peptides of the present invention (Pep4, 7, 8, and 10) in ELISA.

Pep4, Pep7, Pep8, Pep10 = test: Cross-reactivity between peptides in ELISA; assay type: binding; settings: sera of mice immunized with a single peptide
Experimental: as §1
Both of these are category #1 peptides. […] That supports the notion that CDR1 and CDR3 of mAb2 are antigenically distinct.

chlamydia = test: Gross anatomical observation of genital tract inflammation after challenge; assay type: in vivo, mouse; settings: female mice primed and boosted twice SC, necropsy ~28 days post-challenge, vs adjuvant-only control
Source text: FIG. 15A-15C is a set of three photographs showing the gross morphology of tissues of the female reproductive tract of mice immunized and then challenged 28 days earlier with Pep4 or Pep7. Mice had been primed and boosted twice SC, as above, and were challenged with chlamydia 2 weeks later, rechallenged and sacrificed 4 weeks after re-challenge. Inflamed genital tracts outlined in dashed lines.
Genital tracts were exposed at necropsy ˜28 days post-challenge to score inflammatory changes (and then removed for histological analysis). […] Representative examples for recipients of Peptides 4 and 7 are shown in the center and right panels, respectively. Yellow arrows point to uterine horns (which are further demarcated with dashed lines). It is evident that the peptide immunogens reduced the gross pathology of the genital tract even weeks after challenge. This has been reproduced in a second experiment in which control mice received an irrelevant peptide instead of Peptides 4 or 7. Based on what is known in the art from other contexts, the histopathological results are expected to be consistent with these gross anatomical observations.

## GYTFTDYSMH [Pep8]
[1]
  structures recognized by immune sera in infected cells: recognized targets in the inclusion matrix and membrane
C trachomatis
  bacterial shedding measured by DFA staining: reduced bacterial shedding
Human sera; human serum sample # 1
  ELISA 1:40 on 4 peptides Scale: 1+-3+: 2
Human sera; human serum sample # 2
  ELISA 1:40 on 4 peptides Scale: 1+-3+: 1
Human sera; human serum sample # 3
  ELISA 1:40 on 4 peptides Scale: 1+-3+: 2.5
Human sera; human serum sample # 5
  ELISA 1:40 on 4 peptides Scale: 1+-3+: 2
Human sera; human serum sample # 7
  ELISA 1:40 on 4 peptides Scale: 1+-3+: 1
Human sera; human serum sample # 8
  ELISA 1:40 on 4 peptides Scale: 1+-3+: 3
Human sera; human serum sample # 9
  ELISA 1:40 on 4 peptides Scale: 1+-3+: 3
Human sera; human serum sample # 10
  ELISA 1:40 on 4 peptides Scale: 1+-3+: 2
Human sera; human serum sample # 12
  ELISA 1:40 on 4 peptides Scale: 1+-3+: 2
Human sera; human serum sample # 13
  ELISA 1:40 on 4 peptides Scale: 1+-3+: 2
Human sera; human serum sample # 16
  ELISA 1:40 on 4 peptides Scale: 1+-3+: 1.5
Human sera; human serum sample # 18
  ELISA 1:40 on 4 peptides Scale: 1+-3+: 3
Human sera; human serum sample # 21
  ELISA 1:40 on 4 peptides Scale: 1+-3+: 3
Human sera; human serum sample # 22
  ELISA 1:40 on 4 peptides Scale: 1+-3+: 1.5
Human sera; human serum sample # 23
  ELISA 1:40 on 4 peptides Scale: 1+-3+: 1.5
Human sera; human serum sample # 24
  ELISA 1:40 on 4 peptides Scale: 1+-3+: 2
Human sera; human serum sample # 26
  ELISA 1:40 on 4 peptides Scale: 1+-3+: 2
Pep4, Pep7, Pep8, Pep10
  cross-reactivity of raised Abs with Peps 4, 7 or 10 (ELISA): did not cross-react

## HALMPATAVASL [Pep7]
chlamydia
  gross inflammation / pathology of the genital tract: not nearly as inflamed
[1]
  structures recognized by immune sera in infected cells: recognized EB and metabolically active, non-infectious reticulate bodies (RB)
Human sera; human serum sample # 1
  ELISA 1:40 on 4 peptides Scale: 1+-3+: 1.5
Human sera; human serum sample # 2
  ELISA 1:40 on 4 peptides Scale: 1+-3+: 1
Human sera; human serum sample # 3
  ELISA 1:40 on 4 peptides Scale: 1+-3+: 2.5
Human sera; human serum sample # 5
  ELISA 1:40 on 4 peptides Scale: 1+-3+: 2
Human sera; human serum sample # 7
  ELISA 1:40 on 4 peptides Scale: 1+-3+: 0.75
Human sera; human serum sample # 8
  ELISA 1:40 on 4 peptides Scale: 1+-3+: 3
Human sera; human serum sample # 9
  ELISA 1:40 on 4 peptides Scale: 1+-3+: 3
Human sera; human serum sample # 10
  ELISA 1:40 on 4 peptides Scale: 1+-3+: 2
Human sera; human serum sample # 12
  ELISA 1:40 on 4 peptides Scale: 1+-3+: 1.5
Human sera; human serum sample # 13
  ELISA 1:40 on 4 peptides Scale: 1+-3+: 2
Human sera; human serum sample # 16
  ELISA 1:40 on 4 peptides Scale: 1+-3+: 1.5
Human sera; human serum sample # 18
  ELISA 1:40 on 4 peptides Scale: 1+-3+: 3
Human sera; human serum sample # 21
  ELISA 1:40 on 4 peptides Scale: 1+-3+: 2
Human sera; human serum sample # 22
  ELISA 1:40 on 4 peptides Scale: 1+-3+: 1.5
Human sera; human serum sample # 23
  ELISA 1:40 on 4 peptides Scale: 1+-3+: 1.5
Human sera; human serum sample # 24
  ELISA 1:40 on 4 peptides Scale: 1+-3+: 1.5
Human sera; human serum sample # 26
  ELISA 1:40 on 4 peptides Scale: 1+-3+: 2
Pep4, Pep7, Pep8, Pep10
  cross-reactivity of raised Abs with Pep4 (ELISA): cross reacted

## RYDVGGDHYYFTMD [Pep10]
[1]
  structures recognized by immune sera in infected cells: recognized targets in the inclusion matrix and membrane
Human sera; human serum sample # 1
  ELISA 1:40 on 4 peptides Scale: 1+-3+: 2
Human sera; human serum sample # 2
  ELISA 1:40 on 4 peptides Scale: 1+-3+: 1
Human sera; human serum sample # 3
  ELISA 1:40 on 4 peptides Scale: 1+-3+: 2.5
Human sera; human serum sample # 5
  ELISA 1:40 on 4 peptides Scale: 1+-3+: 1.5
Human sera; human serum sample # 7
  ELISA 1:40 on 4 peptides Scale: 1+-3+: 1
Human sera; human serum sample # 8
  ELISA 1:40 on 4 peptides Scale: 1+-3+: 3
Human sera; human serum sample # 9
  ELISA 1:40 on 4 peptides Scale: 1+-3+: 3
Human sera; human serum sample # 10
  ELISA 1:40 on 4 peptides Scale: 1+-3+: 2
Human sera; human serum sample # 12
  ELISA 1:40 on 4 peptides Scale: 1+-3+: 2
Human sera; human serum sample # 13
  ELISA 1:40 on 4 peptides Scale: 1+-3+: 2
Human sera; human serum sample # 16
  ELISA 1:40 on 4 peptides Scale: 1+-3+: 1
Human sera; human serum sample # 18
  ELISA 1:40 on 4 peptides Scale: 1+-3+: 2
Human sera; human serum sample # 21
  ELISA 1:40 on 4 peptides Scale: 1+-3+: 3
Human sera; human serum sample # 22
  ELISA 1:40 on 4 peptides Scale: 1+-3+: 2
Human sera; human serum sample # 23
  ELISA 1:40 on 4 peptides Scale: 1+-3+: 1
Human sera; human serum sample # 24
  ELISA 1:40 on 4 peptides Scale: 1+-3+: 2
Human sera; human serum sample # 26
  ELISA 1:40 on 4 peptides Scale: 1+-3+: 1.5

— patent US8637040B2, “Genus-wide chlamydial peptide vaccine antigens” (priority 2008, dated 2014)
